Biological target: T1, ΔF508-CFTR (Homo sapiens, UniProt P13569, DEL508-508)
T1 construct: expressed in transfected cells; host or cells: Fisher rat epithelial (FRT) cells expressing ΔF508-CFTR (Ussing chamber); NIH3T3 cells stably expressing ΔF508-CFTR (whole-cell recordings)
Assay: Assay for detecting and measuring ΔF508-CFTR potentiation properties of compounds (membrane potential optical method / Ussing chamber)
Assay type: cell-based
Conditions: for Emax: relative efficacy, efficacy compared to that of the known potentiator genistein; for EC50: ΔF508-CFTR potentiation
Text: Assays for Detecting and Measuring ΔF508-CFTR Potentiation Properties of Compounds
Membrane Potential Optical Methods for Assaying ΔF508-CFTR Modulation Properties of Compounds
The optical membrane potential assay utilized voltage-sensitive FRET sensors described by Gonzalez and Tsien (See, Gonzalez, J. E. and R. Y. Tsien (1995) “Voltage sensing by fluorescence resonance energy transfer in single cells” Biophys J 69(4): 1272-80, and Gonzalez, J. E. and R. Y. Tsien (1997) “Improved indicators of cell membrane potential that use fluorescence resonance energy transfer” Chem Biol 4(4): 269-77) in combination with instrumentation for measuring fluorescence changes such as the Voltage/Ion Probe Reader (VIPR) (See, Gonzalez, J. E., K. Oades, et al. (1999) “Cell-based assays and instrumentation for screening ion-channel targets” Drug Discov Today 4(9): 431-439).
These voltage sensitive assays are based on the change in fluorescence resonant energy transfer (FRET) between the membrane-soluble, voltage-sensitive dye, DiSBAC2(3), and a fluorescent phospholipid, CC2-DMPE, which is attached to the outer leaflet of the plasma membrane and acts as a FRET donor. Changes in membrane potential (Vm) cause the negatively charged DiSBAC2(3) to redistribute across the plasma membrane and the amount of energy transfer from CC2-DMPE changes accordingly. The changes in fluorescence emission were monitored using VIPR™ II, which is an integrated liquid handler and fluorescent detector designed to conduct cell-based screens in 96- or 384-well microtiter plates.
Identification of Potentiator Compounds
Typical protocol utilized a basolateral to apical membrane Cl^− concentration gradient. To set up this gradient, normal ringers was used on the basolateral membrane and was permeabilized with nystatin (360 μg/ml), whereas apical NaCl was replaced by equimolar sodium gluconate (titrated to pH 7.4 with NaOH) to give a large Cl^− concentration gradient across the epithelium. All experiments were performed 30 min after nystatin permeabilization. Forskolin (10 μM) and all test compounds were added to both sides of the cell culture inserts. The efficacy of the putative ΔF508-CFTR potentiators was compared to that of the known potentiator, genistein.
Fisher rat epithelial (FRT) cells expressing ΔF508-CFTR (FRTΔ^F508-CFTR) were used for Ussing chamber experiments for the putative ΔF508-CFTR modulators identified from our optical assays. The cells were cultured on Costar Snapwell cell culture inserts and cultured for five days at 37° C. and 5% CO2 in Coon's modified Ham's F-12 medium supplemented with 5% fetal calf serum, 100 U/ml penicillin, and 100 μg/ml streptomycin. Prior to use for characterizing the potentiator activity of compounds, the cells were incubated at 27° C. for 16-48 hrs to correct for the ΔF508-CFTR. To determine the activity of corrections compounds, the cells were incubated at 27° C. or 37° C. with and without the compounds for 24 hours.
Compounds of the invention are useful as modulators of ATP binding cassette transporters. Table 3 below illustrates the EC50 and relative efficacy of certain embodiments in Table 1.

T1 sequence (P13569 with tags, fused parts or gaps DEL508-508): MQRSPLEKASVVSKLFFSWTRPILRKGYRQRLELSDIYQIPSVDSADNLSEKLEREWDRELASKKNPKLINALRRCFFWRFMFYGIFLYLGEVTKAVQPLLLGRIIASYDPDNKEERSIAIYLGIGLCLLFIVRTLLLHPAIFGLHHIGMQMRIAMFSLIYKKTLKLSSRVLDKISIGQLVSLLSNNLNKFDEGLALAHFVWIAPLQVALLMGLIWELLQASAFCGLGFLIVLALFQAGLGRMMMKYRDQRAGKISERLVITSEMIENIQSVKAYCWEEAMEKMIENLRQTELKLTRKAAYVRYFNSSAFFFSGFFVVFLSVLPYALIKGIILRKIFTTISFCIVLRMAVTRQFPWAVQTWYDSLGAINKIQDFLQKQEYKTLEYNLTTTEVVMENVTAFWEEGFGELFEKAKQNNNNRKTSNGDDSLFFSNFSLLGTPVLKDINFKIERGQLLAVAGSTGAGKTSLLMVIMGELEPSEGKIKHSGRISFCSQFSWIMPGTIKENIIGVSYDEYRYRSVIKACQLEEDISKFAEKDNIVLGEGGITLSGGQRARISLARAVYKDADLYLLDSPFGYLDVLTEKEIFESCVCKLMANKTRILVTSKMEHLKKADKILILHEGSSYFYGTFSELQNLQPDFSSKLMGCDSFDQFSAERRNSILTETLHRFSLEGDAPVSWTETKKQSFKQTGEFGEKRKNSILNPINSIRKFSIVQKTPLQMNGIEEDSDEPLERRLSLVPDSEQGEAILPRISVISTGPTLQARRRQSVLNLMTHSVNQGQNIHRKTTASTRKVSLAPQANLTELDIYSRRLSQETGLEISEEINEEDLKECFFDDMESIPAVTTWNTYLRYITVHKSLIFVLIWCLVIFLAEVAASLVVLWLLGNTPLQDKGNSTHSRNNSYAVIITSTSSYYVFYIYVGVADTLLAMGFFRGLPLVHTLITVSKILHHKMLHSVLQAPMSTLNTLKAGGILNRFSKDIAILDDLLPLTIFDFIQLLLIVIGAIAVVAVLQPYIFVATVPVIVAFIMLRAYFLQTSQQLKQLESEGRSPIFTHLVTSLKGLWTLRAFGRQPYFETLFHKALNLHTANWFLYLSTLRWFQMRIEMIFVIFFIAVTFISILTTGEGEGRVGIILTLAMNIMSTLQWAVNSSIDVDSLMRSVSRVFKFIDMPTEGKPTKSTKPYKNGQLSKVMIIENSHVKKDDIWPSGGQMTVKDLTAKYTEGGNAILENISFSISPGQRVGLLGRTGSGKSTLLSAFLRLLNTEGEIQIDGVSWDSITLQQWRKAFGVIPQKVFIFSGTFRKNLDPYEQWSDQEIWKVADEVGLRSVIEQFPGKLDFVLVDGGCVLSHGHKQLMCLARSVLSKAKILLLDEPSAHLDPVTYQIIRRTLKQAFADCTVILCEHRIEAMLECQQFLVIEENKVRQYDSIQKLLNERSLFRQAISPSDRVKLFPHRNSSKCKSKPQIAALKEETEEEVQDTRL

Emax [%] | EC50 [µM] | Structure (SMILES)
25 to 100 | < 10 | CC(C)c1ccccc1NC(=O)c1c[nH]c2ccncc2c1=O [Cmpd 4, N-(2-isopropylphenyl)-4-oxo-1,4-dihydro-1,6-naphthyridine-3-carboxamide]
25 to 100 | < 10 | Cc1cc2c(=O)c(C(=O)Nc3cc4[nH]ccc4cc3C(F)(F)F)c[nH]c2cn1 [Cmpd 15, 6-methyl-4-oxo-N-(5-(trifluoromethyl)-1H-indol-6-yl)-1,4-dihydro-1,7-naphthyridine-3-carboxamide]
< 25 | 10 to 25 | Cc1cc2c(=O)c(C(=O)Nc3cc(O)c(C4(C)CCCCC4)cc3F)c[nH]c2cn1 [Cmpd 17, N-(2-fluoro-5-hydroxy-4-(1-methylcyclohexyl)phenyl)-6-methyl-4-oxo-1,4-dihydro-1,7-naphthyridine-3-carboxamide]
25 to 100 | < 10 | O=C(NCC1(c2ccc(OC(F)(F)F)cc2)CCCC1)c1c[nH]c2ccncc2c1=O [Cmpd 8, 4-oxo-N-((1-(4-(trifluoromethoxy)phenyl)-cyclopentyl)methyl)-1,4-dihydro-1,6-naphthyridine-3-carboxamide]
25 to 100 | < 10 | O=C(NCC(c1ccccc1)c1ccccc1)c1c[nH]c2ccncc2c1=O [Cmpd 2, N-(2,2-diphenylethyl)-4-oxo-1,4-dihydro-1,6-naphthyridine-3-carboxamide]
< 25 | < 10 | O=C(Nc1ccc2cc[nH]c2c1)c1c[nH]c2ccncc2c1=O [Cmpd 6, N-(1H-indol-6-yl)-4-oxo-1,4-dihydro-1,6-naphthyridine-3-carboxamide]
> 100 | < 10 | O=C(NC(c1ccccc1)c1ccccc1)c1c[nH]c2ccncc2c1=O [Cmpd 1, N-benzhydryl-4-oxo-1,4-dihydro-1,6-naphthyridine-3-carboxamide]
25 to 100 | < 10 | C[C@H]1CCCN1c1ccc(NC(=O)c2c[nH]c3cnccc3c2=O)c(C(F)(F)F)c1 [Cmpd 12, (S)-N-(4-(2-methylpyrrolidin-1-yl)-2-(trifluoromethyl)phenyl)-4-oxo-1,4-dihydro-1,7-naphthyridine-3-carboxamide]
25 to 100 | < 10 | O=C(Nc1ccc(N2CCCC2)cc1C(F)(F)F)c1c[nH]c2ccncc2c1=O [Cmpd 7, 4-oxo-N-(4-(pyrrolidin-1-yl)-2-(trifluoromethyl)phenyl)-1,4-dihydro-1,6-naphthyridine-3-carboxamide]
25 to 100 | < 10 | CC(C)(C)c1cc(C(C)(C)C)c(NC(=O)c2c[nH]c3cnccc3c2=O)cc1O [Cmpd 9, N-(2,4-di-tert-butyl-5-hydroxyphenyl)-4-oxo-1,4-dihydro-1,7-naphthyridine-3-carboxamide]
25 to 100 | < 10 | O=C(Nc1cc2[nH]ccc2cc1C(F)(F)F)c1c[nH]c2cnccc2c1=O [Cmpd 14, 4-oxo-N-(5-(trifluoromethyl)-1H-indol-6-yl)-1,4-dihydro-1,7-naphthyridine-3-carboxamide]
25 to 100 | < 10 | CCCc1ccccc1NC(=O)c1c[nH]c2ccncc2c1=O [Cmpd 3, 4-oxo-N-(2-propylphenyl)-1,4-dihydro-1,6-naphthyridine-3-carboxamide]
25 to 100 | < 10 | CC(C)(C)c1cc2cc[nH]c2cc1NC(=O)c1c[nH]c2cnccc2c1=O [Cmpd 10, N-(5-tert-butyl-1H-indol-6-yl)-4-oxo-1,4-dihydro-1,7-naphthyridine-3-carboxamide]
25 to 100 | < 10 | CC1(c2cc(F)c(NC(=O)c3c[nH]c4cnccc4c3=O)cc2O)CCCCC1 [Cmpd 13, N-(2-fluoro-5-hydroxy-4-(1-methylcyclohexyl)phenyl)-4-oxo-1,4-dihydro-1,7-naphthyridine-3-carboxamide]
25 to 100 | < 10 | O=C(Nc1ccc2c(C(F)(F)F)c[nH]c2c1)c1c[nH]c2cnccc2c1=O [Cmpd 16, 4-oxo-N-(3-(trifluoromethyl)-1H-indol-6-yl)-1,4-dihydro-1,7-naphthyridine-3-carboxamide]
25 to 100 | < 10 | O=C(Nc1ccccc1-c1ccccc1)c1c[nH]c2ccncc2c1=O [Cmpd 5, N-(biphenyl-2-yl)-4-oxo-1,4-dihydro-1,6-naphthyridine-3-carboxamide]
25 to 100 | < 10 | CC1(C)CCCN(c2ccc(NC(=O)c3c[nH]c4cnccc4c3=O)c(C(F)(F)F)c2)C1 [Cmpd 18, N-(4-(3,3-dimethylpiperidin-l-yl)-2-(trifluoromethyl)phenyl)-4-oxo-1,4-dihydro-1,7-naphthyridine-3-carboxamide]
25 to 100 | < 10 | O=C(Nc1ccc(N2CCCC2)cc1C(F)(F)F)c1c[nH]c2cnccc2c1=O [Cmpd 11, 4-oxo-N-(4-(pyrrolidin-1-yl)-2-(trifluoromethyl)phenyl)-1,4-dihydro-1,7-naphthyridine-3-carboxamide]

Reference: US8410132B2, “Modulators of cystic fibrosis transmembrane conductance regulator” (Vertex Pharmaceuticals Incorporated, priority 2007, dated 2013)
